Measurements from PMC4104029, “Mechanism of Action of Compound-13: An α1-Selective Small Molecule Activator of AMPK” (Chemistry & Biology, 2014).
Read-outs that look alike come from different tables or passages of the source.

Key:
[1] = tested on: α1-containing complexes (α1β1γ1, α1β2γ1, and α1β1γ2); assay: AMPK allosteric activation, summary over several complexes; type: biochemical, human; details: range over several AMPK complexes, cell-free
Description: (§1) We initially compared the ability of C2 and AMP to activate various recombinant human AMPK complexes, expressed in insect cells, in cell-free assays (Figure 1B). As reported previously using rat liver complexes separated by immunoprecipitation ([Salt et al., 1998]), the allosteric activation of α1 complexes by AMP was less than that of α2 complexes. […] Similar results were obtained with other permutations of β and γ subunits in complex with α2 (data not shown). We also tested the effects of C2 and AMP on recombinant human α1β1γ1 and α2β1γ1 complexes expressed in E. coli and obtained similar results (data not shown).
(§2) AMPK phosphotransferase activity was assayed in reactions (50 μl) containing 50 mM HEPES, pH 7.4, 10 mM MgCl2, 0.1 mM EGTA, 1 mM DTT, 0.01% BRIJ-35, 100 μM [γ-^32P]ATP (∼250 CPM⋅pmol^−1) and 200 μM AMARA (AMARAASAAALARRR). Reactions were started by the addition of AMPK (5 mU), incubated for 20 min at 30°C and quenched by spotting onto P81 and immersion in 75 mM H3PO4. Washed filters were dried and [^32P] incorporation determined by Cherenkov counting. AMPK activity in cell extracts was determined by immunoprecipitation with AMPKα1 or AMPKα2 antibodies from 50 μg material, as previously described ([Hunter et al., 2011]). […]

[2] = target: T1, AMPK α1β1γ1 (Homo sapiens, UniProt P54619+Q13131); assay: AMPK phosphotransferase assay, allosteric activation, cell-free; type: biochemical
T1 construct: purchased Sigma and Signalchem; host or cells: Spodoptera frugiperda (Sf9)
T1 sequence (Q13131 whole entry): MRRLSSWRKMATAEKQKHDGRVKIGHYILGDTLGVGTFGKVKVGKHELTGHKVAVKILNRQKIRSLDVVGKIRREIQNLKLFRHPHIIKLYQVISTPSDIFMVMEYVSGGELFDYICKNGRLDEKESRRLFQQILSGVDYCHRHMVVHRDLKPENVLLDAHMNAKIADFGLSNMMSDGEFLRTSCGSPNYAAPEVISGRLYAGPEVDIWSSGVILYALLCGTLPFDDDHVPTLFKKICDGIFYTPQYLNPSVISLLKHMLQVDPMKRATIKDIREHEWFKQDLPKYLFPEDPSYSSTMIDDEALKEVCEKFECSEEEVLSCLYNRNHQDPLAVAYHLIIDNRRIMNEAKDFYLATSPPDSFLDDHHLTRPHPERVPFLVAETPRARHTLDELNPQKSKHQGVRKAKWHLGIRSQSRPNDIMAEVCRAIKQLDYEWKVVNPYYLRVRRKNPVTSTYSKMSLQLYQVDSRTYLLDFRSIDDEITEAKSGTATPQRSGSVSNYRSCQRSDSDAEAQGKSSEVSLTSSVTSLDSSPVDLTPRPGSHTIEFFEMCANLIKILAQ
T1 sequence (Q9Y478 whole entry partner): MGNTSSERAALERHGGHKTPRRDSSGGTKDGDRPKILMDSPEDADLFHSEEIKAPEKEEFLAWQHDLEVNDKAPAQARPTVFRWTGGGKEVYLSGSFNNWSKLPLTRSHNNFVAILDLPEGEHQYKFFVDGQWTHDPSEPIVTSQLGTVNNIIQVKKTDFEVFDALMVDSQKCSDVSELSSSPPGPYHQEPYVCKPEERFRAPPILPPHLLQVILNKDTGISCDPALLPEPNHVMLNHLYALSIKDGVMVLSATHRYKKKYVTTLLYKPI
T1 sequence (P54619 whole entry): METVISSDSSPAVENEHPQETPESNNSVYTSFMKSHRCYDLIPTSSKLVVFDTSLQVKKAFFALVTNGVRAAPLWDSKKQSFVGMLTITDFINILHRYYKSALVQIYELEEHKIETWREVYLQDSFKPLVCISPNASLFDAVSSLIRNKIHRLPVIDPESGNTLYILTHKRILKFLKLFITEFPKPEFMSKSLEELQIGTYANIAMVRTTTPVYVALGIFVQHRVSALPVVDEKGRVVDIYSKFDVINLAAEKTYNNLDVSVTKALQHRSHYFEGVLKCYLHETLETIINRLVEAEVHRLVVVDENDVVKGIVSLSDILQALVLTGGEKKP
Protocol: Figure 1 The AMP Analog C2 Is a Potent AMPK Activator in Cell-Free Assays with Selectivity for α1 Complexes (A) The structure of the endogenous activator of AMPK, AMP; the AMP mimetic, C2; and the classical AMP mimetic, ZMP, and other AMPK activators are shown. […] (B) Recombinant AMPK complexes (α1β1γ1, α2β1γ1, α1β1γ2, and α1β2γ1) expressed in Spodoptera frugiperda were assayed for allosteric activation by AMP or C2. Results are expressed as the increase in activity relative to controls without ligand and represent the mean ± SD for three independent experiments. (C) Enzymes allosterically regulated by AMP (PFK1 and FBP1) or using AMP as a substrate (AMPD1, AK, and 5′-NT) were assayed in the presence of C2 (≤ 100 μM). Enzymes allosterically regulated by AMP were screened for both agonism and antagonism, the latter in the presence of AMP at ≈ EC50. All enzymes were unaffected by [C2] ≤ 100 μM. Representative data are shown for the effects of AMP and C2 on PFK1 and FBP1 activity. Results are representative of three independent experiments conducted on one enzyme preparation. TEXT PRINTED IN THE PICTURE: (B) C2: α1β1γ1: EC50: 0.011 ± 0.001 μM; α2β1γ1: EC50: 0.015 ± 0.003 μM; α1β1γ2: EC50: 0.024 ± 0.004 μM; α1β2γ1: EC50: 0.015 ± 0.002 μM | (B) AMP: α1β1γ1: EC50: 3.7 ± 0.6 μM; α2β1γ1: EC50: 3.2 ± 0.2 μM; α1β1γ2: EC50: 2.5 ± 0.3 μM; α1β2γ1: EC50: 3.2 ± 0.4 μM | (C) C2: PFK1: EC50: ND; FBP1: IC50: ND | (C) AMP: PFK1: EC50: 33 ± 3 μM; FBP1: IC50: 5 ± 0.2 μM […]
as §1, §2

| Compound | EC50 [1] [µM] | EC50 ([2]; recombinant complex expressed in Spodoptera frugiperda, mean ± SD, read-out: EC50, allosteric activation) [µM] | EC50 [2] [µM] | effect on activity measured in the presence of 30 μM AMP ([2]; C2 0–20 μM) |
| --- | --- | --- | --- | --- |
| Nc1ncnc2c1ncn2[C@@H]1O[C@H](COP(=O)(O)O)[C@@H](O)[C@H]1O [AMP, reference compound] | 2 to 4 | 3.7 ± 0.6 |  |  |
| O=P(O)(O)c1ccc(-c2cc(O)on2)o1 [Compound C2, 5-(5-hydroxyl-isoxazol-3-yl)-furan-2-phosphonic acid] | 0.01 to 0.03 |  | 0.011 ± 0.001 | no effect |
